Our source for the pA2 values is ChEMBL document CHEMBL1124159, “Synthesis and structure-activity relationships of 2-sulfonamido-1,3,4,6,7,11b alpha-hexahydro-2H-benzo[a]quinolizines as alpha 2-adrenoceptor antagonists” (J Med Chem, 1988).

Assay [1] addresses T1, Adrenergic receptor alpha-2 (Rattus norvegicus, UniProt P22086+P19328+P22909).
T1 sequence (P22086 whole entry): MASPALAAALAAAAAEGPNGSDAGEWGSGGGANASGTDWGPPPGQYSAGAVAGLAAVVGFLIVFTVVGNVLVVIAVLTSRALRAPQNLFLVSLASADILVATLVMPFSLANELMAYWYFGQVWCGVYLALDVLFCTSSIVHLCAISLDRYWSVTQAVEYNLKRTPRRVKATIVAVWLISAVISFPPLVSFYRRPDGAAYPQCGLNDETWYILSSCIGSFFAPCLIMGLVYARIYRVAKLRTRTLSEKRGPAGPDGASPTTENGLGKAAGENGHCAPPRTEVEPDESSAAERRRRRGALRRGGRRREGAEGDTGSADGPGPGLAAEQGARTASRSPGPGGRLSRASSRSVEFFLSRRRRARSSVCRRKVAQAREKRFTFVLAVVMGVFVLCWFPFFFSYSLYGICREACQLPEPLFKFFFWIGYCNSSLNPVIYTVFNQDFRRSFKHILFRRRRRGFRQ
T1 sequence (P19328 whole entry): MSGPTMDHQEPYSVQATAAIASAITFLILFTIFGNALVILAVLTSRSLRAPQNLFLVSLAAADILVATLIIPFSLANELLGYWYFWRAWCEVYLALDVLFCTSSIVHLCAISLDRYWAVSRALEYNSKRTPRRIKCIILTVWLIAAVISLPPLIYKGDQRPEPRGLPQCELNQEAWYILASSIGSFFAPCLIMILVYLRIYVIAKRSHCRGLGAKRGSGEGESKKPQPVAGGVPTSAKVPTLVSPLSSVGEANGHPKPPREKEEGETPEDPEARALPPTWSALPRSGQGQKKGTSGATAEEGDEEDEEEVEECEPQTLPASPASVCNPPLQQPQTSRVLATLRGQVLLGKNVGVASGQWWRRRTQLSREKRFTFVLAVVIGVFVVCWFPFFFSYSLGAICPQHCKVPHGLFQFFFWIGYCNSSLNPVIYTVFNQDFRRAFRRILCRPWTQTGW
T1 sequence (P22909 whole entry): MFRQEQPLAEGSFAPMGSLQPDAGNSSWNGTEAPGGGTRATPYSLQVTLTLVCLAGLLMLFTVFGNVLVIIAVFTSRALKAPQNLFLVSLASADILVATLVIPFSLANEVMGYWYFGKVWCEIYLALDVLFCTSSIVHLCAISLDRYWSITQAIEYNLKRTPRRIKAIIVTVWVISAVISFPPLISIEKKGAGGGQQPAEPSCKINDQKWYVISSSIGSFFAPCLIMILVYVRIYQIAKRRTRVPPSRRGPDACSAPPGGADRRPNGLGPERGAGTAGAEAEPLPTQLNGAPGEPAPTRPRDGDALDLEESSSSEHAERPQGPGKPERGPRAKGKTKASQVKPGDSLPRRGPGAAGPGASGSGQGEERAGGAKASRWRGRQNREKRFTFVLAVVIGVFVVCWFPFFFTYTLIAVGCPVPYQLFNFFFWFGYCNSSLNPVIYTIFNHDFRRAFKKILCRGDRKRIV
As to the kind of experiment: Antagonistic activity against alpha-2 adrenergic receptor in rat vas deferens. The assay is classed as functional, tissue-based.

In assay [2] the target is T2, Adrenergic receptor alpha-1 (Rattus norvegicus, UniProt P15823+P23944+P43140).
T2 sequence (P15823 whole entry): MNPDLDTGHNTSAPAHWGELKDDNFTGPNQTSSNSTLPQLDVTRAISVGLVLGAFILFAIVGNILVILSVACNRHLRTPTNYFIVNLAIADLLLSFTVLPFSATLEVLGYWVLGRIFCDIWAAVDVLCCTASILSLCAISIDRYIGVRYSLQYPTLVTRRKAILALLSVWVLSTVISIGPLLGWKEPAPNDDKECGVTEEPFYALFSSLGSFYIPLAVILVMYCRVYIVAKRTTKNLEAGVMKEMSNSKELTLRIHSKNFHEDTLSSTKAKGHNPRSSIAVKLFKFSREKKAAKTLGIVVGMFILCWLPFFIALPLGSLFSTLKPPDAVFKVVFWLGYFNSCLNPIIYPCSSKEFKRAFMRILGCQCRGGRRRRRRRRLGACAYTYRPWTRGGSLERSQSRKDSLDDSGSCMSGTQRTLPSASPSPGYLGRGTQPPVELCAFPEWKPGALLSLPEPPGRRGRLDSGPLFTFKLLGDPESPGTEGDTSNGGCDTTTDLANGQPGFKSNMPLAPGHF
T2 sequence (P23944 whole entry): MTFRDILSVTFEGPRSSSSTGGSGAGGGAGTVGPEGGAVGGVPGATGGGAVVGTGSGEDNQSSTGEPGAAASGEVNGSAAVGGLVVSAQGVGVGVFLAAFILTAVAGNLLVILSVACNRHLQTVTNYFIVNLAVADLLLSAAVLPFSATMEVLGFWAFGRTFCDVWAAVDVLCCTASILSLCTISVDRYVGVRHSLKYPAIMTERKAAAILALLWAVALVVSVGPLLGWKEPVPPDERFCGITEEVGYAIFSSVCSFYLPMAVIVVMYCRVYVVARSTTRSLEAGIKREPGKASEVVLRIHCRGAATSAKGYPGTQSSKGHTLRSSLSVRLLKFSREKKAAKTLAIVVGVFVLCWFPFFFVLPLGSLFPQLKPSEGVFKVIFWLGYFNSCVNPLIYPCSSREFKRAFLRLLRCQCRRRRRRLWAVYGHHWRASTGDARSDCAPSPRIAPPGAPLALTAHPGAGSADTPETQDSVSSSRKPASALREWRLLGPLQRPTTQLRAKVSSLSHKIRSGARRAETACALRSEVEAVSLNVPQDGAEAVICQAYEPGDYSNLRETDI
T2 sequence (P43140 whole entry): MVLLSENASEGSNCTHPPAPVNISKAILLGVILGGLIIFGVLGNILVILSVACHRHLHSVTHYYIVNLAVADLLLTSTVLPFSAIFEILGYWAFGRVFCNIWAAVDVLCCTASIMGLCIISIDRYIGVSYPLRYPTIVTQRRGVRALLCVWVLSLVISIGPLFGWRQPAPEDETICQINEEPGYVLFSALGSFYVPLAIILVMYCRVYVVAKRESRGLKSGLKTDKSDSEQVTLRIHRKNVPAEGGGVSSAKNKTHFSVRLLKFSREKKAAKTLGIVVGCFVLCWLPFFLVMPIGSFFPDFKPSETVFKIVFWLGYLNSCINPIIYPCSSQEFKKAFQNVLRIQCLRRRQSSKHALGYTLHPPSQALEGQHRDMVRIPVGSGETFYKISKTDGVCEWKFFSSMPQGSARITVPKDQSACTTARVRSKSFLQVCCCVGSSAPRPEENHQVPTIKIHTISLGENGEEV
The assay can be described thus: Antagonistic activity against alpha-1 adrenergic receptor in isolated rat anococcygeus muscle. The format is functional, tissue-based.

Turning to `CN([C@@H]1CCN2CCc3ccccc3[C@@H]2C1)S(=O)(=O)c1ccccc1`, the values for the pA2 in assay [1] and in assay [2] were 8.44 and 7.05, respectively.

Consider `CC(C)CS(=O)(=O)N(C)[C@H]1CCN2CCc3ccccc3[C@H]2C1`, for which the pA2 (usually a measure of antagonist potency on a negative log scale) in assay [1] is on record as less than 5; in assay [2], 5.2.

With `Cc1ccccc1S(=O)(=O)N(C)[C@@H]1CCN2CCc3ccccc3[C@@H]2C1`, the pA2 came to 7.87 in assay [1] and 6.27 in assay [2].

Turning to `CN(C)S(=O)(=O)N(C)[C@@H]1CCN2CCc3ccccc3[C@@H]2C1`, the pA2 turned out to be 7.4 in assay [1] and 5.95 in assay [2].

Turning to `CN([C@@H]1CCN2CCc3ccccc3[C@@H]2C1)S(=O)(=O)c1ccc(Cl)cc1`, the pA2 was 7.6 in assay [1] and 6.09 in assay [2].

As for `CCS(=O)(=O)N(C)[C@@H]1CCN2CCc3ccccc3[C@@H]2C1`, the pA2 came out at 7.7 in assay [1] and 6.17 in assay [2].

Regarding `CN([C@H]1CCN2CCc3ccccc3[C@H]2C1)S(C)(=O)=O`, the pA2 in assay [1] is given as less than 5; in assay [2] it was 5.3.

On to `CN([C@@H]1CCN2CCc3ccccc3[C@@H]2C1)S(=O)(=O)N1CCCC1`, for which the pA2 was found to be 8.1 in assay [1] and 6.7 in assay [2].

Consider `CN([C@@H]1CCN2CCc3ccccc3[C@@H]2C1)S(=O)(=O)c1ccsc1`, for which the pA2 came to 7.94 in assay [1] and 6.65 in assay [2].

With `CN([C@@H]1CCN2CCc3ccccc3[C@@H]2C1)S(=O)(=O)CC1CC1`, the pA2 in assay [1] stood at 7.7; in assay [2] it was 6.7.

Consider `CN([C@@H]1CCN2CCc3ccccc3[C@@H]2C1)S(=O)(=O)CC(F)(F)F`, for which the results for the pA2 in assay [1] and in assay [2] were 7.56 and 5.93, respectively.

Turning to `CCN([C@@H]1CCN2CCc3ccccc3[C@@H]2C1)S(C)(=O)=O`, the figures for the pA2 in assay [1] and in assay [2] were 7.39 and 6.61, respectively.

Regarding `CN([C@@H]1CCN2CCc3ccccc3[C@@H]2C1)S(=O)(=O)c1cccc2ccccc12`, the pA2 in assay [1] came out at 8.06; in assay [2], 7.1.

In assay [2], `CC(C)COC(=O)N(C)[C@@H]1CCN2CCc3ccccc3[C@@H]2C1` gave a pA2 of 7.

In the case of `Cc1ccc(S(=O)(=O)N(C)[C@@H]2CCN3CCc4ccccc4[C@@H]3C2)cc1`, the pA2 in assay [1] came out at 8.1; in assay [2], 6.84.

In turn, `CCCCCCCCCCCCS(=O)(=O)N(C)[C@@H]1CCN2CCc3ccccc3[C@@H]2C1` gave a pA2 in assay [1] of less than 5.

With `CN([C@@H]1CCN2CCc3ccccc3[C@@H]2C1)S(=O)(=O)c1cccc2cccnc12`, the pA2 was determined as 8.46 in assay [1] and 6.84 in assay [2].

Take `CN([C@@H]1CCN2CCc3ccccc3[C@@H]2C1)S(=O)(=O)C(F)(F)F`: the figures for the pA2 in assay [1] and in assay [2] were 7.15 and 5.49, respectively.

Take `CN([C@@H]1CCN2CCc3ccccc3[C@@H]2C1)S(=O)(=O)CC(C)(C)C`: the pA2 in assay [1] came out at 8.11; in assay [2] it was 6.5.

Regarding `CN([C@@H]1CCN2CCc3ccccc3[C@@H]2C1)S(=O)(=O)c1cccnc1`, the pA2 in assay [1] was determined as 8.22; in assay [2] it was 6.73.

As for `COC(=O)N(C)[C@@H]1CCN2CCc3ccccc3[C@@H]2C1`, the pA2 in assay [2] is given as 6.56.

The molecule `CCOC(=O)N(C)[C@@H]1CCN2CCc3ccccc3[C@@H]2C1` had a pA2 in assay [2] of 6.93.

In the case of `CN([C@@H]1CCN2CCc3ccccc3C2C1)S(C)(=O)=O` (stereo partly specified), in assay [1], the pA2 was determined as 5.7.

Turning to `CN([C@@H]1CCN2CCc3ccccc3[C@@H]2C1)S(=O)(=O)CCN1CCCCC1`, the pA2 in assay [1] came to 7.5; in assay [2], 6.11.

As to `CCCN([C@@H]1CCN2CCc3ccccc3[C@@H]2C1)S(C)(=O)=O`, the results for the pA2 in assay [1] and in assay [2] were 6.77 and 6.44, respectively.

As for `COP(=O)(OC)N(C)[C@@H]1CCN2CCc3ccccc3[C@@H]2C1`, in assay [1], the pA2 is given as 6.63.
